Data: patent US11730723B2, “Compounds and methods for treating viral infections” (priority 2020, dated 2023)
“And” between values parts separate entries of the source, which are not always exact repeats. Equal values may be shown once. Read-outs that look alike come from different tables or passages of the source.

How the values were obtained:
[1] = tested on: dengue virus (DENV) serotype 2 strain D2S221; assay: Dengue virus D2S221 inhibition assay in Vero cells (immunostaining); conditions: read-out: D2S221 IC50
[2] = tested on: H292 cells (NCI-H292); assay: Cytotoxicity in uninfected H292 cells (MTT); conditions: CC50, uninfected H292 cells
[3] = tested on: alpha coronavirus 229E (CoV-229E); assay: CoV-229E virus-induced CPE inhibition in MRC-5 cells (XTT); conditions: 6 days
[4] = tested on: HCoV-OC43; assay: HCoV-OC43 CPE assay in Huh-7 cells (neutral red uptake, 6 days); type: cell-based, human coronavirus (HCoV) OC43 strain; conditions: for Raw OD-Absorbance 490 nm: infected Huh-7, neutral red uptake, individual replicates
[5] = Cytotoxicity in HepG2 2.2.15 cells (MTS); type: cell-based; conditions: human, same assay plate
[6] = tested on: HBV wild-type strain ayw1; assay: Primary anti-HBV assay in HepG2 2.2.15 cells (qPCR of HBV DNA); conditions: Hepatitis B virus, HepG2 2.2.15, 144 h
[7] = tested on: Huh-7 cells; assay: Cytotoxicity / viability of uninfected Huh-7 cells (XTT, 6 days); conditions: for Viability (A490): control; for Viability of Huh-7 Cells (A490): raw absorbance 490 nm
[8] = tested on: SARS-CoV-2 (USA-WA1/2020); assay: microbe, parasite or virus in culture; conditions: Severe acute respiratory syndrome coronavirus 2, Vero C1008, 48 h, read-out: Live SARS-CoV-2 Antiviral Assay IC50
[9] = tested on: Vero E6 cells; conditions: for viability of Vero E6 cells (percent of vehicle alone): 2-day treatment, mean ± SD of duplicates
[10] = tested on: SARS-CoV-2 (USA-WA1/2020); conditions: Compound 1 at 25 μM; HCQ at 5 μM; remdesivir 10 μM
[11] = in vitro; conditions: African green monkey
[12] = tested on: HCoV 229E; assay: HCoV 229E CPE assay in MRC-5 cells (CellTiter Glo); type: cell-based, human coronavirus (HCoV) 229E; conditions: unidentified human coronavirus, MRC5, read-out: HCoV 229E CPE assay EC50
[13] = Cytotoxicity on Huh7 cells (CellTiter Glo); conditions: human
[14] = Cytotoxicity on MRC-5 cells (CellTiter Glo); conditions: human
[15] = tested on: MRC-5 cells; assay: Cell viability of uninfected drug control MRC-5 cells (XTT), TC50; conditions: read-out: TC50, uninfected MRC-5 cells, 6 days
[16] = tested on: HCoV-OC43; assay: HCoV-OC43 efficacy in H292 cells (MTT, 6 days); type: cell-based, HCoV-OC43 (Betacoronavirus 1); conditions: Betacoronavirus 1, OC43, NCI-H292, read-out: Efficacy
[17] = tested on: HCoV OC43; assay: HCoV OC43 CPE assay in Huh7 cells (CellTiter Glo); type: cell-based, human coronavirus (HCoV) OC43; conditions: Betacoronavirus 1, OC43, Huh-7, read-out: HCoV OC43 CPE Assay EC50

CCN(CC)CCCC(C)Nc1ccnc2cc(Cl)ccc12 (stereo not drawn) [Chloroquine diphosphate]
IC50 [1]: 23700 nM

CCN(CC)CCCC(C)Nc1ccnc2cc(Cl)ccc12 (stereo not drawn) [Chloroquine]
Cytotoxicity [2]: 46.04 µM | EC50 [3]: 490 nM | Inhibition of OC43 Virus-Induced CPE in Huh-7 Cells ([4]; CQ 5 μM, relative to uninfected cells (mock), listed as CQ): 87.8% | Raw OD-Absorbance 490 nm ([4]; CQ 5 μM, listed as CQ): 0.693 and 0.689

Nc1ccn([C@@H]2CS[C@H](CO)O2)c(=O)n1 [Compound 3TC, Lamivudine]
CC50 [5]: > 2000 nM | EC50 [6]: 28.3 nM | EC90 [6]: > 2000 nM

CC[C@H]1CN2CCc3cc(OC)c(OC)cc3[C@@H]2C[C@@H]1C[C@H]1NCCc2cc(OC)c(OC)cc21 [Emetine]
Viability (A490) ([7]; 1 μM, percentage viability vs medium only): 18.3 ± 0.3% | Viability (A490) ([7]; 1 μM, raw absorbance, individual replicates): 0.176 and 0.179 | Viability (A490) ([7]; 5 μM, percentage viability vs medium only): 8.2 ± 0.7% | Viability (A490) ([7]; 5 μM, raw absorbance, individual replicates): 0.104 and 0.111 | cell viability blocked / inhibited ([7]; cytotoxic control, XTT, tested at 5 μM): more than 90%

C=C1[C@H](CO)[C@@H](O)C[C@@H]1n1cnc2c(=O)[nH]c(N)nc21 [Entecavir]
CC50 [5]: > 1000 nM | EC50 [6]: 0.44 nM | EC90 [6]: > 1000 nM

CCN(CCO)CCCC(C)Nc1ccnc2cc(Cl)ccc12 (stereo not drawn) [HCQ, hydroxychloroquine]
IC50 [8]: ~3000 nM | viability of Vero E6 cells (percent of vehicle alone) ([9]; 0.16 μM): 103.9 ± 6.9% | viability of Vero E6 cells (percent of vehicle alone) ([9]; 0.31 μM): 102.3 ± 4.6% | viability of Vero E6 cells (percent of vehicle alone) ([9]; 0.63 μM): 103.2 ± 3.4% | viability of Vero E6 cells (percent of vehicle alone) ([9]; 1.25 μM): 100.4 ± 0.5% | viability of Vero E6 cells (percent of vehicle alone) ([9]; 2.5 μM): 94.4 ± 7.9% | viability of Vero E6 cells (percent of vehicle alone) ([9]; 5 μM): 93.4 ± 6.5% | viability of Vero E6 cells (percent of vehicle alone) ([9]; 10 μM): 93.8 ± 6.0% | viability of Vero E6 cells (in words) ([9]; Compound 1 at concentrations lower than 25 μM, HCQ at all concentrations tested): not significantly changed | prevention of the SARS-CoV-2 induced CPE (in words) [10]: prevented most of the virus-induced CPE | CC50 [11]: > 10000 nM

CCC(CC)COC(=O)[C@H](C)N[P@](=O)(OC[C@H]1O[C@@](C#N)(c2ccc3c(N)ncnn23)[C@H](O)[C@@H]1O)Oc1ccccc1 [Remdesivir]
EC50 [12]: 20 nM | CC50 [13]: 6170 nM | Cytotoxicity [2]: >20 µM | CC50 [14]: 27900 nM | EC50 [3]: 130 nM | CC50 [15]: > 2000 nM | EC50 [16]: 37500 nM | EC50 [17]: 20 nM

NC(=O)c1ncn([C@@H]2O[C@H](CO)[C@@H](O)[C@H]2O)n1 [Ribavirin]
IC50 [1]: 71100 nM

CCN(CC)CCNC(=O)c1c(C)[nH]c(/C=C2\C(=O)Nc3ccc(F)cc32)c1C [Sunitinib]
Cytotoxicity [2]: 10 to 50 µM | EC50 [3]: 630 nM | IC50 [1]: 4060 nM | CC50 [15]: 1320 nM

Sunitinib maleate
Viability of Huh-7 Cells (A490) ([7]; 0.01 μM, 6 days, individual replicates): 0.721 and 0.651 | Viability of Huh-7 Cells (A490) ([7]; 0.04 μM, 6 days, individual replicates): 0.738 and 0.751 | Viability of Huh-7 Cells (A490) ([7]; 0.12 μM, 6 days, individual replicates): 0.719 and 0.752 | Viability of Huh-7 Cells (A490) ([7]; 0.37 μM, 6 days, individual replicates): 0.732 and 0.765 | Viability of Huh-7 Cells (A490) ([7]; 1.1 μM, 6 days, individual replicates): 0.676 and 0.665 | Viability of Huh-7 Cells (A490) ([7]; 3.3 μM, 6 days, individual replicates): 0.642 and 0.601 | Viability of Huh-7 Cells (A490) ([7]; 10 μM, 6 days, individual replicates): 0.543 and 0.554 | Viability of Huh-7 Cells (A490) ([7]; 30 μM, 6 days, individual replicates): 0.058 and 0.055 | Viability of Huh-7 Cells (A490) ([7]; 90 μM, 6 days, individual replicates): 0.053 and 0.054 | CC50 ([7]; read-out: Cytotoxicity (Huh-7 cells) CC50, 6 days, XTT): 13000 nM | Inhibition of OC43 Virus-Induced CPE in Huh-7 Cells ([4]; 0.01 μM, mean of duplicates): 1.1% | Inhibition of OC43 Virus-Induced CPE in Huh-7 Cells ([4]; 0.04 μM, mean of duplicates): −1.2% | Inhibition of OC43 Virus-Induced CPE in Huh-7 Cells ([4]; 0.12 μM, mean of duplicates): −0.1% | Inhibition of OC43 Virus-Induced CPE in Huh-7 Cells ([4]; 0.4 μM, mean of duplicates): −2.4% | Inhibition of OC43 Virus-Induced CPE in Huh-7 Cells ([4]; 1.1 μM, mean of duplicates): −1.0% | Inhibition of OC43 Virus-Induced CPE in Huh-7 Cells ([4]; 3.3 μM, mean of duplicates): 17.9% | Inhibition of OC43 Virus-Induced CPE in Huh-7 Cells ([4]; 10 μM, mean of duplicates): 21.4% | Inhibition of OC43 Virus-Induced CPE in Huh-7 Cells ([4]; 30 μM, mean of duplicates): −7.8% | EC50 ([4]; Huh-7 cells, 6 days, neutral red): > 30000 nM | Raw OD-Absorbance 490 nm ([4]; 0.01 μM): 0.120 | Raw OD-Absorbance 490 nm ([4]; 0.04 μM): 0.094 | Raw OD-Absorbance 490 nm ([4]; 0.4 μM): 0.086 and 0.090 | Raw OD-Absorbance 490 nm ([4]; 1.1 μM): 0.094 | Raw OD-Absorbance 490 nm ([4]; 3.3 μM): 0.312 and 0.136 | Raw OD-Absorbance 490 nm ([4]; 10 μM): 0.214 and 0.280 | Raw OD-Absorbance 490 nm ([4]; 30 μM): 0.051 and 0.053
